This passage reports EC50 results from patent US10738062B2, “Chromane-substituted tetracyclic compounds and uses thereof for the treatment of viral diseases” (Merck Sharp & Dohme Corp., priority 2016, dated 2020).

Where two headings read alike, the source gives them in different places.

What all share (set-up): species or system Hepatitis C virus
The subject of one assay is HCV replicon 1A Y93H. The assay is described as follows: Cell-based HCV replicon assay (Replicon Assay A), replicon 1AY93H. The settings on record: replicon RNA by real time PCR, day 3. An outline of the steps:
(§1)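 Replicon cells were seeded at 2000/well with compound, 10 serial dilutions starting at 333.3 nM to 1.667 nM, in 0.5% DMSO and 5% FBS, then harvested on day 3. Replicon RNA was measured by multiplex TaqMan RT-PCR with cyclophilin as endogenous control. EC50 is the concentration raising Ct by 1 over projected baseline.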
A general note: Replicon systems follow genome replication, usually without infectious particles.

The next assay concerns HCV replicon 1A. The assay is described as follows: Cell-based HCV replicon assay (Replicon Assay A), replicon 1A. The settings on record: replicon RNA by real time PCR, day 3. An outline of the steps:
as §1

The test system of a further assay is HCV replicon 1B. Put plainly: Cell-based HCV replicon assay (Replicon Assay B), replicon 1B. The settings on record: replicon RNA by real-time PCR, 3 days. Here is the method: In an alternate assay (“Replicon Assay B”), 1000 cells were seeded per well in a 384-well collagen coated black plate from Greiner bio-one (Cat #781946) in 5% FBS. Inhibitors of this invention were added at 24 h post-seeding, and the plates were incubated for 3 days. Cells were subsequently lysed with Qiagen lysis buffer (Cat #1062731) to extract the RNA. HCV replicon RNA level was measured by real-time PCR using the RNA-to-CT kit from Applied Biosystem (Cat #4392656) and genotype-specific primers and probes. The amplicon was located within NS5B. […] (SEQ. ID NO. 2); the probe sequence was FAM-labeled […] (SEQ. ID NO. 3).
The real-time RT-PCR reactions were run on ABI PRISM 7900HT or Viia7 Sequence Detection System using the following program: 48° C. for 30 minutes, 95° C. for 10 minutes, 40 cycles of 95° C. for 15 sec, 60° C. for 1 minutes.
EC50 data for replicons 1A, 1AY93H and 2B were obtained using Replicon Assay A and EC50 data for replicon 1B was obtained using Replicon Assay B.

The test system of the next assay is HCV replicon 2B. The assay is described as follows: Cell-based HCV replicon assay (Replicon Assay A), replicon 2B. To be noted: replicon RNA by real time PCR, day 3. An outline of the steps:
as §1

The mark [1] stands for this setting: Hepatitis C virus, 72 h, read-out: EC50 replicon 2B, Replicon Assay A.
The mark [2] stands for this setting: read-out: EC50 replicon 1A Y93H, Replicon Assay A.
The mark [3] stands for this setting: read-out: EC50 replicon 2B, Replicon Assay A.

For the molecule `COC(=O)NC(C(=O)N1[C@@H]2C[C@@H]2C[C@H]1c1ncc(-c2ccc3c(c2)cc2n3C(c3ccc4c(c3)OCCC4)Oc3cc(-c4cnc([C@@H]5CCCN5C(=O)[C@@H](NC(=O)OC)C(C)C)[nH]4)cc(F)c3-2)[nH]1)C1CCOC(C)(C)C1` (single isomer, unassigned) [Compound 69], the 50% effective concentration (EC50) in the assay on HCV replicon 1A Y93H (Hepatitis C virus, 72 h, read-out: EC50 replicon 1A Y93H, Replicon Assay A) was 0.005 nM; with HCV replicon 1A (Hepatitis C virus, 72 h), 3.2 pM; in the assay with HCV replicon 1B (Hepatitis C virus, 72 h), 3.5 pM; in the assay with HCV replicon 2B (setting [1]), 8 pM.
In the case of `COC(=O)NC(C(=O)N1[C@@H]2C[C@@H]2C[C@H]1c1ncc(-c2ccc3c(c2)cc2n3C(c3ccc4c(c3)OCCC4)Oc3cc(-c4cnc([C@@H]5CCCN5C(=O)[C@@H](NC(=O)OC)C(C)C)[nH]4)cc(F)c3-2)[nH]1)C1CCOC(C)(C)C1` (single isomer, unassigned) [Compound 70], the concentration for a half-maximal effect (EC50) with HCV replicon 1A Y93H (setting [2]) was determined as 0.006 nM; with HCV replicon 1A it was 2.8 pM; in the assay with HCV replicon 1B it was 2.7 pM; in the assay on HCV replicon 2B (setting [3]), 12 pM.
With `COC(=O)NC(C(=O)N1CCC[C@H]1c1ncc(-c2ccc3c(c2)cc2n3C(c3ccc4c(c3)OCCC4)Oc3cc(-c4cnc([C@@H]5CCCN5C(=O)[C@@H](NC(=O)OC)C(C)C)[nH]4)cc(F)c3-2)[nH]1)C1C[C@@H](C)O[C@@H](C)C1` (single isomer, unassigned) [Compound 76], the EC50 is 0.012 nM in the assay on HCV replicon 1A Y93H (setting [2]); 2.5 pM with HCV replicon 1A; 3.2 pM in the assay on HCV replicon 1B (Hepatitis C virus, 72 h); 4 pM with HCV replicon 2B (setting [3]).
Taken in the same sequence, the figures for `COC(=O)NC(C(=O)N1CCC[C@H]1c1ncc(-c2ccc3c(c2)cc2n3C(c3ccc4c(c3)OCCC4)Oc3cc(-c4cnc([C@@H]5CCCN5C(=O)[C@@H](NC(=O)OC)C(C)C)[nH]4)cc(F)c3-2)[nH]1)C1C[C@@H](C)O[C@H](C)C1` (single isomer, unassigned) [Compound 78] were 0.009 nM, 2.2 pM, 2.6 pM and 4 pM.
Regarding `COC(=O)NC(C(=O)N1CCC[C@H]1c1ncc(-c2ccc3c(c2)cc2n3C(c3ccc4c(c3)OCCC4)Oc3cc(-c4cnc([C@@H]5CCCN5C(=O)[C@@H](NC(=O)OC)C(C)C)[nH]4)cc(F)c3-2)[nH]1)C1CCOC(C)(C)C1` (single isomer, unassigned) [Compound 79], the EC50 with HCV replicon 1A Y93H (setting [2]) was 0.006 nM; in the assay with HCV replicon 1A (Hepatitis C virus, 72 h) it was 1.7 pM; with HCV replicon 1B (Hepatitis C virus, 72 h), 2.7 pM; with HCV replicon 2B (setting [1]), 7 pM.
Take `COC(=O)NC(C(=O)N1CCC[C@H]1c1ncc(-c2ccc3c(c2)cc2n3C(c3ccc4c(c3)OCCC4)Oc3cc(-c4cnc([C@@H]5CCCN5C(=O)[C@@H](NC(=O)OC)C(C)C)[nH]4)cc(F)c3-2)[nH]1)C1CCOC(C)(C)C1` (single isomer, unassigned) [Compound 80]: the EC50 was 0.024 nM in the assay with HCV replicon 1A Y93H (setting [2]), 2.6 pM in the assay with HCV replicon 1A, 3.2 pM with HCV replicon 1B and 6 pM with HCV replicon 2B (setting [3]).
Regarding `COC(=O)NC(C(=O)N1[C@@H]2C[C@@H]2C[C@H]1c1ncc(-c2ccc3c(c2)cc2n3C(c3ccc4c(c3)OCCC4)Oc3cc(-c4cnc([C@@H]5CCCN5C(=O)[C@@H](NC(=O)OC)C(C)C)[nH]4)cc(F)c3-2)[nH]1)C1CCO[C@H](C)C1` (single isomer, unassigned) [Compound 82], the EC50 came to 0.003 nM in the assay on HCV replicon 1A Y93H (setting [2]); 1.7 pM in the assay on HCV replicon 1A; 2.1 pM in the assay on HCV replicon 1B (Hepatitis C virus, 72 h); 4 pM with HCV replicon 2B (setting [3]).
Take `COC(=O)NC(C(=O)N1CCC[C@H]1c1ncc(-c2ccc3c(c2)cc2n3C(c3ccc4c(c3)OCCC4)Oc3cc(-c4cnc([C@@H]5CCCN5C(=O)[C@@H](NC(=O)OC)C(C)C)[nH]4)cc(C)c3-2)[nH]1)C1C[C@@H](C)O[C@@H](C)C1` (single isomer, unassigned) [Compound 86]: the EC50 in the assay on HCV replicon 1A Y93H (setting [2]) stood at 0.028 nM; with HCV replicon 1A, 3 pM; with HCV replicon 1B (Hepatitis C virus, 72 h), 2.7 pM; in the assay on HCV replicon 2B (setting [3]), 7 pM.
Taken in the same sequence, the figures for `COC(=O)NC(C(=O)N1CCC[C@H]1c1ncc(-c2cc(F)c3c(c2)OC(c2ccc4c(c2)OCCC4)n2c-3cc3cc(-c4cnc([C@@H]5CCCN5C(=O)[C@@H](NC(=O)OC)C5CCOCC5)[nH]4)ccc32)[nH]1)C(C)(C)F` (single isomer, unassigned) [Compound 87] were 0.528 nM, 2.3 pM, 3.4 pM and 133 pM.
As for `COC(=O)NC(C(=O)N1CCC[C@H]1c1ncc(-c2cc(F)c3c(c2)OC(c2ccc4c(c2)OCCC4)n2c-3cc3cc(-c4cnc([C@@H]5CCCN5C(=O)[C@@H](NC(=O)OC)C5CCOCC5)[nH]4)ccc32)[nH]1)C(C)(C)F` (single isomer, unassigned) [Compound 88], the EC50 with HCV replicon 1A Y93H (setting [2]) was found to be 9.93 nM; in the assay on HCV replicon 1A it was 14.9 pM; with HCV replicon 1B, 2.6 pM; in the assay on HCV replicon 2B (setting [3]), 3110 pM.
Turning to `COC(=O)NC(C(=O)N1CCC[C@H]1c1ncc(-c2cc(F)c3c(c2)OC(c2ccc4c(c2)OCCC4)n2c-3cc3cc(-c4cnc([C@@H]5CCCN5C(=O)[C@@H](NC(=O)OC)C5CCOCC5)[nH]4)ccc32)[nH]1)C(C)(C)F` (single isomer, unassigned) [Compound 89], the concentration for a half-maximal effect (EC50) with HCV replicon 1A Y93H (setting [2]) was determined as 0.017 nM; in the assay on HCV replicon 1A, 2.1 pM; in the assay with HCV replicon 1B it was 3.1 pM; in the assay on HCV replicon 2B (setting [3]), 15 pM.
On to `COC(=O)NC(C(=O)N1CCC[C@H]1c1ncc(-c2cc(F)c3c(c2)OC(c2ccc4c(c2)OCCC4)n2c-3cc3cc(-c4cnc([C@@H]5CCCN5C(=O)[C@@H](NC(=O)OC)C5CCOCC5)[nH]4)ccc32)[nH]1)C(C)(C)F` (single isomer, unassigned) [Compound 90], for which the EC50 in the assay on HCV replicon 1A Y93H (setting [2]) is 0.047 nM; in the assay with HCV replicon 1A, 1.7 pM; in the assay on HCV replicon 1B, 3.2 pM; in the assay on HCV replicon 2B (setting [3]), 157 pM.
In the case of `COC(=O)N[C@H](C(=O)N1CCC[C@H]1c1ncc(-c2cc(F)c3c(c2)OC(c2ccc4c(c2)OCCC4)n2c-3c(F)c3cc(-c4cnc([C@@H]5CCCN5C(=O)[C@@H](NC(=O)OC)C5CCOCC5)[nH]4)ccc32)[nH]1)C(C)C` (single isomer, unassigned) [Compound 92], the EC50 with HCV replicon 1A Y93H (setting [2]) was 0.006 nM; with HCV replicon 1A, 1.5 pM; in the assay with HCV replicon 1B (Hepatitis C virus, 72 h), 2.4 pM; with HCV replicon 2B (setting [3]) it was 6 pM.
Consider `COC(=O)NC(C(=O)N1CCC[C@H]1c1ncc(-c2ccc3c(c2)cc2n3C(c3ccc4c(c3)OCCC4)Oc3cc(-c4cnc([C@@H]5CCCN5C(=O)[C@@H](NC(=O)OC)C(C)C)[nH]4)cc(F)c3-2)[nH]1)C1CCO[C@H](C)C1` (single isomer, unassigned) [Compound 93], for which the EC50 in the assay on HCV replicon 1A Y93H (setting [2]) stood at 0.671 nM; in the assay with HCV replicon 1A (Hepatitis C virus, 72 h), 1.7 pM; in the assay on HCV replicon 1B (Hepatitis C virus, 72 h), 2.1 pM; in the assay with HCV replicon 2B (setting [3]) it was 112 pM.
Take `COC(=O)NC(C(=O)N1CCC[C@H]1c1ncc(-c2ccc3c(c2)cc2n3C(c3ccc4c(c3)OCCC4)Oc3cc(-c4cnc([C@@H]5CCCN5C(=O)[C@@H](NC(=O)OC)C(C)C)[nH]4)cc(F)c3-2)[nH]1)C1CCO[C@H](C)C1` (single isomer, unassigned) [Compound 94]: the EC50 in the assay on HCV replicon 1A Y93H (setting [2]) came to 0.006 nM; in the assay on HCV replicon 1A, 2.3 pM; with HCV replicon 1B, 3.3 pM; with HCV replicon 2B (setting [3]), 4 pM.

For orientation: EC50 means the midpoint of the concentration-response curve.
